Measurements as given in the NIST ThermoML archive (doi:10.1021/acs.jced.5b00549).

Assay: mn = molality of the nth substance listed, in mol/kg
Settings: 100 kPa, Liquid; for viscosity: Capillary tube (Ostwald / Ubbelohde) method; for speed of sound: Frequency=3 MHz, Sing-around technique in a fixed-path interferometer; for mass density: Vibrating tube method

NC(=O)CC[C@H](N)C(=O)O [L-glutamine] + O
Settings | mass density [kg/m3] | speed of sound [m/s] | viscosity [mPa·s]
293.15 K, m1 = 0.02 | 999.262 | 1484 | 1.012
293.15 K, m1 = 0.04 | 1000.32 | 1485.3 | 1.017
293.15 K, m1 = 0.06 | 1001.38 | 1486.9 | 1.022
293.15 K, m1 = 0.08 | 1002.44 | 1488.4 | 1.027
293.15 K, m1 = 0.1 | 1003.5 | 1490.1 | 1.031
293.15 K, m1 = 0.12 | 1004.57 | 1491.8 | 1.035
293.15 K, m1 = 0.14 | 1005.63 | 1493.5 | 1.039
293.15 K, m1 = 0.16 | 1006.69 | 1495.3 | 1.043
293.15 K, m1 = 0.18 | 1007.76 | 1497.2 | 1.047
293.15 K, m1 = 0.2 | 1008.82 | 1499 | 1.051
298.15 K, m1 = 0.02 | 998.094 | 1498 | 0.8984
298.15 K, m1 = 0.04 | 999.147 | 1499.3 | 0.9028
298.15 K, m1 = 0.06 | 1000.2 | 1500.8 | 0.9067
298.15 K, m1 = 0.08 | 1001.26 | 1502.3 | 0.9104
298.15 K, m1 = 0.1 | 1002.32 | 1503.9 | 0.9143
298.15 K, m1 = 0.12 | 1003.37 | 1505.6 | 0.9175
298.15 K, m1 = 0.14 | 1004.43 | 1507.3 | 0.9212
298.15 K, m1 = 0.16 | 1005.49 | 1509 | 0.9246
298.15 K, m1 = 0.18 | 1006.56 | 1510.7 | 0.9277
298.15 K, m1 = 0.2 | 1007.62 | 1512.6 | 0.9308
303.15 K, m1 = 0.02 | 996.679 | 1510.3 | 0.8039
303.15 K, m1 = 0.04 | 997.722 | 1511.6 | 0.8076
303.15 K, m1 = 0.06 | 998.771 | 1513 | 0.8109
303.15 K, m1 = 0.08 | 999.819 | 1514.5 | 0.8141
303.15 K, m1 = 0.1 | 1000.87 | 1516 | 0.817
303.15 K, m1 = 0.12 | 1001.92 | 1517.7 | 0.82
303.15 K, m1 = 0.14 | 1002.97 | 1519.4 | 0.8224
303.15 K, m1 = 0.16 | 1004.02 | 1521 | 0.8254
303.15 K, m1 = 0.18 | 1005.09 | 1522.7 | 0.8283
303.15 K, m1 = 0.2 | 1006.14 | 1524.5 | 0.8316
308.15 K, m1 = 0.02 | 995.051 | 1520.9 | 0.7243
308.15 K, m1 = 0.04 | 996.088 | 1522.2 | 0.7275
308.15 K, m1 = 0.06 | 997.129 | 1523.6 | 0.7302
308.15 K, m1 = 0.08 | 998.171 | 1525 | 0.7329
308.15 K, m1 = 0.1 | 999.218 | 1526.5 | 0.7352
308.15 K, m1 = 0.12 | 1000.26 | 1528.1 | 0.7379
308.15 K, m1 = 0.14 | 1001.31 | 1529.8 | 0.7405
308.15 K, m1 = 0.16 | 1002.36 | 1531.4 | 0.7425
308.15 K, m1 = 0.18 | 1003.41 | 1533.1 | 0.7448
308.15 K, m1 = 0.2 | 1004.48 | 1534.8 | 0.7469
313.15 K, m1 = 0.02 | 993.226 | 1530 | 0.6569
313.15 K, m1 = 0.04 | 994.257 | 1531.3 | 0.6595
313.15 K, m1 = 0.06 | 995.294 | 1532.6 | 0.6621
313.15 K, m1 = 0.08 | 996.332 | 1534 | 0.6638
313.15 K, m1 = 0.1 | 997.372 | 1535.5 | 0.666
313.15 K, m1 = 0.12 | 998.413 | 1537.1 | 0.6682
313.15 K, m1 = 0.14 | 999.457 | 1538.6 | 0.6702
313.15 K, m1 = 0.16 | 1000.5 | 1540.3 | 0.6716
313.15 K, m1 = 0.18 | 1001.56 | 1542 | 0.674
313.15 K, m1 = 0.2 | 1002.6 | 1543.7 | 0.6759

N[C@@H](Cc1c[nH]cn1)C(=O)O [L-histidine] + O
Settings | mass density [kg/m3] | speed of sound [m/s] | viscosity [mPa·s]
293.15 K, m1 = 0.02 | 999.369 | 1484.4 | 1.013
293.15 K, m1 = 0.04 | 1000.53 | 1486.2 | 1.019
293.15 K, m1 = 0.06 | 1001.7 | 1488 | 1.025
293.15 K, m1 = 0.08 | 1002.86 | 1489.7 | 1.03
293.15 K, m1 = 0.1 | 1004.03 | 1491.5 | 1.035
293.15 K, m1 = 0.12 | 1005.19 | 1493.2 | 1.04
293.15 K, m1 = 0.14 | 1006.36 | 1494.9 | 1.045
293.15 K, m1 = 0.16 | 1007.53 | 1496.6 | 1.049
293.15 K, m1 = 0.18 | 1008.71 | 1498.2 | 1.054
293.15 K, m1 = 0.2 | 1009.89 | 1499.9 | 1.058
298.15 K, m1 = 0.02 | 998.178 | 1498.5 | 0.8996
298.15 K, m1 = 0.04 | 999.317 | 1500.2 | 0.9048
298.15 K, m1 = 0.06 | 1000.46 | 1501.9 | 0.9091
298.15 K, m1 = 0.08 | 1001.59 | 1503.7 | 0.9138
298.15 K, m1 = 0.1 | 1002.73 | 1505.3 | 0.9175
298.15 K, m1 = 0.12 | 1003.87 | 1507 | 0.9222
298.15 K, m1 = 0.14 | 1005.02 | 1508.7 | 0.9259
298.15 K, m1 = 0.16 | 1006.16 | 1510.3 | 0.9293
298.15 K, m1 = 0.18 | 1007.32 | 1512 | 0.9336
298.15 K, m1 = 0.2 | 1008.47 | 1513.6 | 0.9374
303.15 K, m1 = 0.02 | 996.746 | 1510.7 | 0.8051
303.15 K, m1 = 0.04 | 997.854 | 1512.4 | 0.8093
303.15 K, m1 = 0.06 | 998.962 | 1514.1 | 0.813
303.15 K, m1 = 0.08 | 1000.07 | 1515.7 | 0.8165
303.15 K, m1 = 0.1 | 1001.18 | 1517.3 | 0.8198
303.15 K, m1 = 0.12 | 1002.29 | 1519 | 0.8233
303.15 K, m1 = 0.14 | 1003.39 | 1520.5 | 0.8265
303.15 K, m1 = 0.16 | 1004.5 | 1522.2 | 0.8301
303.15 K, m1 = 0.18 | 1005.61 | 1523.7 | 0.8339
303.15 K, m1 = 0.2 | 1006.72 | 1525.3 | 0.8372
308.15 K, m1 = 0.02 | 995.102 | 1521.3 | 0.7253
308.15 K, m1 = 0.04 | 996.183 | 1523 | 0.7289
308.15 K, m1 = 0.06 | 997.262 | 1524.6 | 0.732
308.15 K, m1 = 0.08 | 998.34 | 1526.2 | 0.7348
308.15 K, m1 = 0.1 | 999.416 | 1527.8 | 0.7378
308.15 K, m1 = 0.12 | 1000.49 | 1529.4 | 0.7407
308.15 K, m1 = 0.14 | 1001.57 | 1531 | 0.7435
308.15 K, m1 = 0.16 | 1002.64 | 1532.5 | 0.7466
308.15 K, m1 = 0.18 | 1003.72 | 1534.1 | 0.7492
308.15 K, m1 = 0.2 | 1004.78 | 1535.6 | 0.7524
313.15 K, m1 = 0.02 | 993.257 | 1530.4 | 0.6578
313.15 K, m1 = 0.04 | 994.314 | 1532 | 0.6608
313.15 K, m1 = 0.06 | 995.368 | 1533.5 | 0.6633
313.15 K, m1 = 0.08 | 996.42 | 1535.1 | 0.666
313.15 K, m1 = 0.1 | 997.47 | 1536.7 | 0.6682
313.15 K, m1 = 0.12 | 998.515 | 1538.2 | 0.6709
313.15 K, m1 = 0.14 | 999.558 | 1539.7 | 0.6734
313.15 K, m1 = 0.16 | 1000.6 | 1541.2 | 0.6756
313.15 K, m1 = 0.18 | 1001.63 | 1542.7 | 0.6783
313.15 K, m1 = 0.2 | 1002.67 | 1544.2 | 0.681

CN(C)C(=N)NC(=N)N.Cl [N,N-dimethylimidodicarbonimidic diamide hydrochloride] + O
Settings | mass density, m1 = 0.01 [kg/m3] | mass density, m1 = 0.07 [kg/m3] | mass density, m1 = 0.13 [kg/m3] | speed of sound, m1 = 0.01 [m/s] | speed of sound, m1 = 0.07 [m/s] | speed of sound, m1 = 0.13 [m/s] | viscosity, m1 = 0.01 [mPa·s] | viscosity, m1 = 0.07 [mPa·s] | viscosity, m1 = 0.13 [mPa·s]
293.15 K | 998.57 | 1000.83 | 1003.13 | 1483.3 | 1490.2 | 1496.3 | 1.01 | 1.015 | 1.019
298.15 K | 997.402 | 999.633 | 1001.9 | 1497.3 | 1503.9 | 1509.7 | 0.8925 | 0.899 | 0.9052
303.15 K | 995.993 | 998.2 | 1000.45 | 1509.7 | 1515.8 | 1521.3 | 0.8013 | 0.8074 | 0.8126
308.15 K | 994.369 | 996.524 | 998.785 | 1520.3 | 1526 | 1531.3 | 0.7245 | 0.7285 | 0.7333
313.15 K | 992.542 | 994.71 | 996.926 | 1529.4 | 1534.8 | 1539.8 | 0.6566 | 0.6606 | 0.6662
